Data published in US6867179B1, “Methods of inducing hair growth and coloration” (Trustees of Boston University, priority 1994, dated 2005).

Tests used:
p75 = assay: Regulation of p75 mRNA in melanocytes by agents that increase cAMP; format: cell-based, human; conditions: forskolin 50 μM or IBMX 100 μM, within 24 hours
Protocol: MC were stimulated with growth factor-containing medium supplemented with forskolin (50 μM) or IBMX (100 μM) that increase cAMP levels. […] To determine if ultraviolet (UV) irradiation that induces cutaneous injury upregulates p75, MC were sham- or UV-irradiated with solar simulated light (30 mJ/cm^2, metered at 285+5 nm). […] Furthermore, 48 hours after irradiation, cAMP levels were >70% decreased in UV- vs sham-irradiated cells.

p75^NTR = target: T1, p75^NTR (Homo sapiens, UniProt P08138); conditions: lysine 34 replaced by alanine; cited from earlier work
T1 sequence (P08138 29-427): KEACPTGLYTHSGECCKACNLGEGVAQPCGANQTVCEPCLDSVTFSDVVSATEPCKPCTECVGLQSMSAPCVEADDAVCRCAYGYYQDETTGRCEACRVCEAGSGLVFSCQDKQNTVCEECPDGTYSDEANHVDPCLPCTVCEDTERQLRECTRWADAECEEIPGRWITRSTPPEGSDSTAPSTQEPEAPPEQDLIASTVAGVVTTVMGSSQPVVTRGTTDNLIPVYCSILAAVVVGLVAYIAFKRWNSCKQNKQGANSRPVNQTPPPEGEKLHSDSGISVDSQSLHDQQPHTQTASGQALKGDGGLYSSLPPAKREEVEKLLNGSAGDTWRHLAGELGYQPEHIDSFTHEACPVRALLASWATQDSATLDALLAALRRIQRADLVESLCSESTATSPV

| Molecule | p75 mRNA upregulation (p75) | Lowering of affinity for p75NTR relative to NGF (p75^NTR) [%] |
| --- | --- | --- |
| CC(C)Cn1c(=O)n(C)c(=O)c2[nH]cnc21 [IBMX] | substantially inhibited this upregulation |  |
| mutant NGF: NGF in which lysine (K) at position 34 is replaced by alanine (A) |  | 50 |
